According to patent US20220241247A1, “PHARMACOLOGICAL AGENTS FOR TREATING PROTEIN AGGREGATION DISEASES OF THE EYE” (PLEX PHARMACEUTICALS, INC., priority 2019, published 2022):
pEC50: −log10 of the molar value. Where two headings read alike, the source gives them in different places.

What was measured:
[1] = biological target: T1, AAC (Homo sapiens, UniProt P02489); test: UV-induced aggregation of hAAC, SDS-PAGE; assay type: biochemical; conditions: UV light 15 minutes; 0-1000 μM; 4-20% SDS-PAGE
T1 sequence (P02489 1-173): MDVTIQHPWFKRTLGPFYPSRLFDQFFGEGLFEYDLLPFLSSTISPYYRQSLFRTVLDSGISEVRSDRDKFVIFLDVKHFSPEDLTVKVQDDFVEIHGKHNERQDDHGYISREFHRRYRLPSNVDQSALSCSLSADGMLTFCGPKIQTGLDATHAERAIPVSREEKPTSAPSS
Procedure: (§1) It was determined that CAP4349 protects hAAC from UV-induced aggregation in a concentration-dependent manner. The meglumine salt of Tafamidis (CAP4349-M) was tested for its ability to prevent hAAC aggregation using SDS/PAGE and absorbance.
hAAC, with or without CAP4349-M (meglumine salt, 0-1000 μM), was exposed to UV light for 15 minutes and analyzed on a 4-20% gradient SDS-PAGE gel.

[2] = Drug bank value; cited from earlier work
[3] = biological target: T1, AAC; test: UV-induced aggregation of hAAC, measured by absorbance; assay type: biochemical
Procedure: as §1
In another study, hAAC, with or without CAP4349-M, was exposed to UV light for 60 minutes and the resulting aggregation was measured by absorbance. The results are shown in FIG. 1B in terms of mean percentage absorbance change±SD (n=3 or 4). The EC50 value, which is the half-maximal response of hAAC aggregation, was determined to be19.7(±1.4) μM.

[4] = Solubility; assay type: physicochemical; conditions: for solubility: disodium salt
Procedure: (§2) Therefore, in order to improve the aqueous solubility and bioavailability, the present disclosure provides prodrugs of CAP4349.
To a solution of Tafamidis, CAP4349 (308 mg) in DMF (10 mL) was added K2CO3 (220 mg) and KI (132 mg) followed by di-tert-butyl chloromethyl phosphate at room temperature while stirring. The reaction mixture was stirred at 70° C. for two hours. The reaction was quenched with ice and extracted three times in Ethyl Acetate. The combined organic layer was washed with water followed by 1% aqueous solution of sodium thiosulfate, and lastly with Brine, yielding the intermediate t-butyl protected phosphate. The t-butyl protected phosphate intermediate was converted to disodium salt in two steps by cleaving the protecting group with TFA followed by NaHCO3 treatment in the presence of water and THF resulting in disodium salt of CAP4357, as a white solid.

[5] = biological target: T1, AAC; test: Chaperone assay: UV-induced aggregation of BGC in presence of AAC; assay type: biochemical; conditions: UV radiation
Procedure: (§3) Post translational modification, due to UV light, oxidation, glycation, crosslinking, and proteolysis can affect the CLA of AAC and its ability to prevent the aggregation of target proteins. These modifications lead to aggregation of other lens crystallins, which culminate in the development of lens opacity and cataract development. Since CAP4349 prevents aggregation of hACC, the effect of CAP4349 on the CLA activity of AAC was evaluated using in vitro chaperone assays with (i) lysozyme as a model client protein, and (ii) bovine γ-crystallin (BGC), as a physiologically relevant lenticular protein.
UV-Induced Aggregation of BGC: Exposure to UV radiation is a contributing factor to cataract formation. […]
The aggregation reaction was initiated by exposing the reaction mixture to UVB radiation. Aggregation was monitored for changes in light scattering by measuring absorbance at 600 nm at t=0, 15, 30 and 45 minutes. Mean percentage absorbance±SD from triplicate or quadruplicate wells plotted on a graph (FIG. 2C). EC50 value was calculated as 64.8 (±1.3) […], which is the concentration of CAP4349-M concentration producing half-maximal response of BGC aggregation in presence of AAC.

[6] = system: human lens soluble extracts; test: UV-induced opacification of human lens lysate; assay type: biochemical; conditions: UV radiation
Text: (§4) Both bovine and human lens lysates contain AAC as well as multiple endogenous client proteins, all of which are present at physiological ratios in a physiologically-relevant milieu of ions, redox pairs and antioxidants.

[7] = system: HLE cell line SRA 01/04 cells; test: UV-induced cell death of human lens epithelial cells; assay type: cell-based; conditions: pre-incubated 2 hours; UV light 48 seconds
Text: (§5) Efficacy of CAP4349 in protection of human lens epithelial cells from stress, as a measure of cellular AC function: Heating of intact human lenses dramatically promotes conversion of soluble AC into HMW aggregates and AC is responsible for protecting human lens epithelial (HLE) cells from thermal stress induced cell death (Peschek J et al. (2009), Proc. Natl. Acad. Sci. USA. 106(32):13272-13277). Survival of HLE cells following UV stress also depends on AC activity (Kumar P. et al., (2007) Biochem. J., 408:251-258). Assays for measuring cell-survival assays following heat or UV exposure were developed as a potential surrogate for AC chaperone activity. HLE cell line SRA 01/04 cells were pre-incubated for 2 hours with CAP4349 and then exposed to heat (50° C. for 40 m) or UV light (48 seconds).

[8] = system: AAC(R116C)-GFP in HeLa cells; test: High-content assay for AAC aggregation (p62-positive inclusions); assay type: cell-based, human; conditions: GFP fluorescence
Procedure: Cellular effects of CAP4349 were evaluated using an automated high-content assay for AAC aggregation. AAC(R116C)-GFP has been reported to form p62 positive inclusions (p62 is known to co-localize with ubiquitinated aggregates in several protein aggregation diseases) (Neal R, et al. (2010) Mol. Vis. 16:2137-2145.). Experiments were carried out to determine whether CAP4349 had any effect on co-localization of AAC and p62 in HeLa cells.

[9] = system: porcine lenses; test: UV-induced opacification of porcine lenses ex vivo; conditions: pretreated with 125 μM
Procedure: Porcine lenses were pretreated with 125 μM CAP4349 (or vehicle) and UV irradiated (or not). Porcine lenses (Sierra for Medical Science, Inc., Whittier, CA) have been used previously in ex vivo models of cataracts (Raju, M. (2014) Biochemistry, 53(16):2615-2623.).

[10] = biological target: T1, AAC; test: Chaperone assay: heat and DTT-induced aggregation of lysozyme in presence of AAC; assay type: biochemical; conditions: AAC 250, lysozyme 500 μg/ml; 10 mM DTT, 37° C.; absorbance at 400 nm
Procedure: as §3
Heat-induced aggregation of lysozyme: In the presence of a reducing agent (DTT) and heat (37° C.), lysozyme undergoes denaturation and aggregation. The CLA activity of AAC can protect lysozyme against heat and DTT-induced aggregation (Robey, R. L. et al. (1997), Journal of Heterocyclic Chemistry, 34: (2)413-428).

[11] = system: HLE cell line SRA 01/04 cells; test: Viability of human lens epithelial cells under normal conditions; assay type: cell-based; conditions: no stress
Text: as §5, with “HLE cell line SRA 01/04 cells were pre-incubated for 2 hours with CAP4349 and then exposed to heat (50° C. for 40 m) or UV light (48 seconds).” left out

[12] = Estimated maximum concentration in the lens after topical ophthalmic dosing; conditions: meglumine formulated; topical ophthalmic bioavailability 2-5%
Text: as §2

[13] = system: HLE cell line SRA 01/04 cells; test: Heat-induced cell death of human lens epithelial cells; assay type: cell-based; conditions: pre-incubated 2 hours; 50° C. for 40 m
Text: as §5

[14] = system: bovine lens soluble extracts; test: UV-induced opacification of bovine lens lysate; assay type: biochemical; conditions: UV radiation
Text: as §4

[15] = versus meglumine salt of CAP4349

Structure (SMILES): CNC[C@H](O)[C@@H](O)[C@H](O)[C@H](O)CO.O=C(O)c1ccc2nc(-c3cc(Cl)cc(Cl)c3)oc2c1 [CAP4349-M]
- prevention of hAAC aggregation (band intensities of aggregated and non-aggregated form) [1]: dose-dependent prevention of hAAC aggregation
- maximum solubility [2]: 0.0323 mg/mL

Structure (SMILES): O=C(O)c1ccc2nc(-c3cc(Cl)cc(Cl)c3)oc2c1 [CAP4349-M]
- pEC50 ([3]; UV light 60 minutes, absorbance, n=3 or 4, read-out: EC50, half-maximal response of hAAC aggregation): 4.71

Structure (SMILES): O=C(OCOP(=O)(O)O)c1ccc2nc(-c3cc(Cl)cc(Cl)c3)oc2c1.[Na+].[Na+] [CAP4357]
- solubility ([4]; aqueous with cosolvent or surfactant or cyclodextrin, 5% aqueous (2-Hydroxypropyl)-β-cyclodextrin, read-out: solubility in 5% aqueous HPBCD): 40 mg/mL
- solubility ([4]; water, read-out: aqueous solubility): 25 mg/mL
- fold increase in HPBCD solubility [4, 15]: 1,238 fold
- fold increase in aqueous solubility [4, 15]: 774 fold

Structure (SMILES): O=C(O)c1ccc2nc(-c3cc(Cl)cc(Cl)c3)oc2c1 [CAP4349, 2-(3,5-dichlorophenyl) benzo[d]oxazole-6-carboxylic acid]
- protection provided by AAC against UV-induced BGC aggregation [5]: increased the protection provided by AAC against UV-induced BGC aggregation in a dose-dependent manner
- protection of human lysate from UV-induced opacification [6]: protected both bovine (FIG. 5A) and human (FIG. 5B) lysates from UV-induced opacification in a dose-dependent manner
- protection from UV-induced cell death [7]: protects the cells from heat-induced and UV-induced cell death in a dose-dependent manner
- aggregates of AAC(R116C)-GFP co-localized with p62 [8]: decreased
- UV-induced opacification of porcine lenses [9]: prevent UV-induced opacification
- protection of lysozyme from aggregation by AAC [10]: increased protection of lysozyme from aggregation
- pEC50 ([3]; read-out: EC50 for the prevention of hACC aggregation (as restated in Example 7)): 4.71
- viability under normal conditions [11]: does not alter the viability
- maximum concentration in the lens [12]: about 5 μM
- protection from heat-induced cell death [13]: protects the cells from heat-induced and UV-induced cell death in a dose-dependent manner
- protection of bovine lysate from UV-induced opacification [14]: protected both bovine (FIG. 5A) and human (FIG. 5B) lysates from UV-induced opacification in a dose-dependent manner
